How the values were obtained:
FXa = FXa (Homo sapiens, UniProt P00742); assay: In vitro chromogenic factor Xa inhibitory assay; format: biochemical
thrombin = conditions: cited from earlier work; for IC50: thrombin inhibitors

Sequence of FXa (P00742 235-488 limits assumed): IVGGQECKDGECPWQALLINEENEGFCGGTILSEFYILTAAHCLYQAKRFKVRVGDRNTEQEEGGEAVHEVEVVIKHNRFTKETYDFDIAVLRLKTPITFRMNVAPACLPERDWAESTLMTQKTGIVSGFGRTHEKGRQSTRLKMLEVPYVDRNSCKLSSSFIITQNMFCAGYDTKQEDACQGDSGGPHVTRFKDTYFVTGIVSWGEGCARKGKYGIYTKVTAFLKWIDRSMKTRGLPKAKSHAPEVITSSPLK
Sequence of FXa (P00742 41-179 partner limits assumed): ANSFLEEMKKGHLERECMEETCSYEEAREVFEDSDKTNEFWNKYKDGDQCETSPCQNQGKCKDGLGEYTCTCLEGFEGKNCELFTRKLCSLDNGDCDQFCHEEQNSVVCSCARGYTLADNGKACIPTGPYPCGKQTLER

Molecule	FXa inhibitory activity (in words) (FXa)	IC50 (FXa)	IC50 (thrombin)	thrombin inhibitory effects (in words) (thrombin)
O=c1cc(-c2ccc(O)cc2)oc2cc(O)ccc12 [Compound 1, 7,4′-dihydroxyflavone]	Moderate activity	67.1 ± 1.75 µM		
COc1ccc(-c2coc3cc(O)ccc3c2=O)cc1 [Compound 2, 7-hydroxy-4′-methoxyisoflavone]		17.7 ± 0.28 µM		
CC1(C)C=Cc2c(ccc3c2OC[C@@H](c2ccc(O)cc2O)C3)O1 [Compound 3, 3-R-glabridin]	Moderate activity	35.3 ± 1.03 µM		
O=C(/C=C/c1ccc(O)cc1)c1ccc(O)cc1O [Compound 4, isoliquiritigenin]	Moderate activity	74.4 ± 1.29 µM	17.9 µM	
O=C1C[C@@H](c2ccc(O[C@@H]3O[C@H](CO)[C@@H](O)[C@H](O)[C@H]3O)cc2)Oc2cc(O)ccc21 [Compound 5, liquiritin]		5.15 ± 0.09 µM		negligible
COc1c(/C=C/C(=O)c2ccc(O)c(O)c2)ccc(O)c1O [Compound 7, 3,3′,4,4′-tetrahydroxy-2-methoxychalcone]		10.4 ± 0.52 µM		
isoliquiritigenin-4-O-β-D-apiosylglucoside [Compound 10]	very weak effects		37.9 µM	
liquiritigenin-4′-O-β-D-apiosyl(1-2)-β-D-glucoside [Compound 8]	very weak effects			

From PMC8695410 (RSC Advances, 2021)
